Measurements published in patent US7744897B2, “Human immunodeficiency virus gp41 mimetibody polypeptides” (priority 2003, dated 2010).
Read-outs that look alike come from different tables or passages of the source.

Experiments:
[1] = cited from earlier work
[2] = system: other isolates of HIV including an enfuvirtide-resistant strain; settings: similar experiments
[3] = human serum, spiked at 1 mg/ml, 72 hours at 37° C., HPLC
Description: The stability of the T-1249 mimetibody in vitro was determined using HPLC. The T-1249 mimetibody (SEQ ID NO: 1) was spiked into human serum at 1 mg/ml. Using a C18 chromatography matrix, a peak corresponding to the T-1249 mimetibody was resolved from other serum proteins. […] Samples were taken at 0, 5, 25, and 72 hours after the addition of the T-1249 mimetibody into human serum. A background peak was used as a reference for each sample.

HIV = settings: clinical trials; cited from earlier work

For `CC[C@H](C)[C@H](NC(=O)[C@H](CCC(N)=O)NC(=O)[C@H](C)NC(=O)[C@H](CCC(N)=O)NC(=O)[C@H](CCC(=O)O)NC(=O)[C@H](CC(C)C)NC(=O)[C@H](CC(C)C)NC(=O)[C@H](C)NC(=O)[C@@H](NC(=O)[C@@H](NC(=O)[C@H](CCCCN)NC(=O)[C@H](CCC(N)=O)NC(=O)[C@H](CCC(=O)O)NC(=O)[C@H](Cc1c[nH]c2ccccc12)NC(=O)[C@H](CCC(=O)O)NC(=O)[C@H](CCC(N)=O)NC(=O)[C@H](Cc1c[nH]c2ccccc12)NC(C)=O)[C@@H](C)CC)[C@@H](C)O)C(=O)N[C@@H](CCC(N)=O)C(=O)N[C@@H](CCC(N)=O)C(=O)N[C@@H](CCC(=O)O)C(=O)N[C@@H](CCCCN)C(=O)N[C@@H](CC(N)=O)C(=O)N[C@@H](CCC(=O)O)C(=O)N[C@@H](Cc1ccc(O)cc1)C(=O)N[C@@H](CCC(=O)O)C(=O)N[C@@H](CC(C)C)C(=O)N[C@@H](CCC(N)=O)C(=O)N[C@@H](CCCCN)C(=O)N[C@@H](CC(C)C)C(=O)N[C@@H](CC(=O)O)C(=O)N[C@@H](CCCCN)C(=O)N[C@@H](Cc1c[nH]c2ccccc12)C(=O)N[C@@H](C)C(=O)N[C@@H](CO)C(=O)N[C@@H](CC(C)C)C(=O)N[C@@H](Cc1c[nH]c2ccccc12)C(=O)N[C@@H](CCC(=O)O)C(=O)N[C@@H](Cc1c[nH]c2ccccc12)C(=O)N[C@@H](Cc1ccccc1)C(N)=O` [T-1249 peptide], the plasma half-life ([1]; in vivo) is listed as 9 to 14 h.

For “T-1249 mimetibody: Formula (II) polypeptide: V1 QIQ, single copy of T-1249, IgG J region, IgG1 hinge, CH2 and CH3; SEQ ID NO: 1”, the “Activity against other isolates of HIV including an enfuvirtide-resistant strain” value [2] was “active” and the “T-1249 mimetibody remained intact” value [3] was “more than 93%”.

For enfuvirtide, the plasma half-life ([1]; human, plasma) is listed as “about 1.8 hours” and the “Reduction of viral levels in infected patients” value (HIV) is listed as 1-2 logs.
